From US6609014B1, “Use of PDT to inhibit intimal hyperplasia” (QLT Inc., priority 1999, dated 2003)
Where “and” joins values, the source holds several entries; their conditions need not be identical. Identical values can stand only once.

Key:
Assay type in all cases: in vivo, Domestic swine
[1] = test system: PCNA positive (proliferating) cells in the vein; test: PCNA immunocytochemistry of AV fistula veins 48 hours after PDT
Protocol: In Example 4, immunohistochemistry was use to study the early phase of cell proliferation. Immunocytochemistry for the proliferating cell nuclear antigen (PCNA, mouse antibody clone PC10, Sigma) was used to assess cell proliferation in the vein. PCNA positive cells were counted using the Optimas image analysis program.
For the purposes of determining the early cellular effects of PDT on the vein, bilateral AV fistulae were created in six pigs and treated sides were given 0.15 mg BPD-MA (0.15 mg/2 mL) and 40 minutes OR light. After 48 hours these pigs were sacrificed and the fistulae were recovered and processed for histological evaluation. This is not enough time for IH to have developed, but the cellular activation which leads to IH may be detectable. […] Immunocytochemistry for the proliferating cell nuclear antigen (PCNA) was used to assess cell proliferation in the tissue (Table 3).

[2] = test system: elastic lamina of the vein; test: Elastin (Verhoeff's elastic) staining of AV fistula veins after PDT; details: 48 h and 1 month samples
Protocol: (§1) Measurements and observations were made by morphometric analysis of cross-sections of fistulae stained with Verhoeff's elastic to assess the integrity of the vessel wall and also clearly demarcate the internal elastic lamina (IEL) for the measurement of IH. Areas within the lumen and those circumscribed by the internal elastic lamina (IEL) and the external elastic lamina (EEL) were measured directly using the Optimas (Optimas Corporation, Bothell, Wash., USA) program. The areas of the intima and the media were calculated by subtraction: intimal area equals the […], and medial area equals EEL area minus IEL area.

[3] = test system: intimal hyperplasia in the vein of AV fistulae between the carotid artery and the jugular vein; test: Three month efficacy study: PDT of bilateral AV fistulae, morphometric analysis; parameters: key to PDT-treated fistula thrombosed (T): T = thrombosed
Protocol: A porous balloon catheter was introduced into the lumen of veins to deliver either 2 mL of BPD-MA (diluted in 5% dextrose in water) or 5% dextrose in water (control), at a delivery pressure of 2 mm Hg. Two minutes later, the photosensitizer (or dextrose) was rinsed out with heparinized saline before light exposure.
The adventitia of the vein was exposed to the operating room (OR) lamp light for 40 minutes (a combination of incandescent bulbs and fluorescence tubes—approximately 1 J/cm^2).
as §1
A three month study was conducted with bilateral end-to side AV fistulae between the carotid artery and the jugular vein created in 11 pigs. One fistula was treated with 0.15 mg/2 mL BPD-MA and 1 J/cm^2 OR lamp light delivered over 40 min; the control fistula received 5% Dextrose and light. Animals were sacrificed 3 months after PDT. The fistulae were surgically excised and processed for histology and morphometric analysis as described previously. Only 27% of the PDT treated and 45% of the control fistulae were patent by 3 months. Occlusion appeared to be due to both early thrombosis, possibly related to the surgical procedure or late thrombosis due to extensive IH and lumen narrowing.
There were three animals for which patent PDT-treated and control fistulae could be recovered. The percent of the lumen compromised by IH (% LCIH=[…]) was calculated for the first two complete blocks from the tip of the anastamosis for these samples.

[4] = 0.15 mg BPD-MA (0.15 mg/2 mL), 40 minutes OR light, six pigs
[5] = 0.15 mg VERTEPORFIN/2 mL, 1 J/cm^2 OR lamp light over 40 min, three months, individual pigs
[6] = 0.15 mg VERTEPORFIN, three months, group mean
[7] = 0.15 mg VERTEPORFIN, three months, group mean (n=3)
[8] = 0.15 mg VERTEPORFIN, three months, individual pigs
[9] = 0.15 mg VERTEPORFIN, three months, individual pigs (FIG. 9: percent medial hyperplasia)
[10] = 0.15 mg/2 mL BPD-MA, three months

Substance: benzoporphyrin derivative monoacid ring A [BPD-MA]
- MEAN PERCENT OF PCNA POSITIVE CELLS PER TISSUE AREA, PDT, BLOCK 1 [1, 4]: 0.33%
- MEAN PERCENT OF PCNA POSITIVE CELLS PER TISSUE AREA, PDT, BLOCK 2 [1, 4]: 0.74%
- MEAN PERCENT OF PCNA POSITIVE CELLS PER TISSUE AREA, PDT, BLOCK 3 [1, 4]: 0.65%
- Reduction of number of proliferating cells at the anastomosis of the vein ([1]; low-dose PDT (0.15 mg BPD-MA)): 2 fold
- Damage to the elastic lamina due to PDT [2]: no sign of damage to the elastic lamina
- Percent Lumen Compromised by Intimal Hyperplasia, PDT, Block #2 [3, 5]: 2% and 32.3% and 41.7% and 13.7% and 46.4%
- Percent Lumen Compromised by Intimal Hyperplasia, PDT, PDT (Block#1) [3, 5]: 3.1% and 30.2% and 17.3%
- Medial Hyperplasia, PDT, Block#1, Mean [3, 6]: 21.3
- Medial Hyperplasia, PDT, Block#2, Mean [3, 6]: 14.9
- Percent Lumen Compromised by Intimal Hyperplasia, PDT, Block #1, Mean [3, 6]: 16.9%
- Percent Lumen Compromised by Intimal Hyperplasia, PDT, Block #2, Mean [3, 6]: 26.9%
- Percent Lumen Compromised by Intimal Hyperplasia, Control-PDT, Block #1, Mean [3, 7]: 16.7%
- Percent Lumen Compromised by Intimal Hyperplasia, Control-PDT, Block #2, Mean [3, 7]: 8.5%
- PDT-treated fistula thrombosed (T) [3, 8]: T
- Percent Lumen Compromised by Intimal Hyperplasia, Control-PDT, Block #1 [3, 8]: −0.4% and 18.8% and 31.8%
- Percent Lumen Compromised by Intimal Hyperplasia, Control-PDT, Block #2 [3, 8]: 17.6% and 14.5% and −6.6%
- Medial Hyperplasia, PDT, Block#1 [3, 9]: 8.4 and 38.1 and 17.3
- Medial Hyperplasia, PDT, Block#2 [3, 9]: 8.1 and 27.5 and 9.2
- PDT treated fistulae patent by 3 months ([3]; 0.15 mg/2 mL BPD-MA, 1 J/cm^2 OR lamp light over 40 min, 11 pigs, control 45%): 27%
- Relative reduction of intimal hyperplasia, block 1 [3, 10]: 46%
- Relative reduction of intimal hyperplasia, block 2 [3, 10]: 27%
- PDT effect on the media of the veins ([3]; after 3 months): little PDT effect
- IH in block of tissue immediately adjacent to the anastamosis ([3]; three animals with both fistulae patent, three months): marked decrease in IH
